Measured values from PMC4029847 (Journal of clinical pharmacology, 2013).

Target: T1, OATP1A2 (Homo sapiens, UniProt P46721)
T1 sequence (P46721 1-670): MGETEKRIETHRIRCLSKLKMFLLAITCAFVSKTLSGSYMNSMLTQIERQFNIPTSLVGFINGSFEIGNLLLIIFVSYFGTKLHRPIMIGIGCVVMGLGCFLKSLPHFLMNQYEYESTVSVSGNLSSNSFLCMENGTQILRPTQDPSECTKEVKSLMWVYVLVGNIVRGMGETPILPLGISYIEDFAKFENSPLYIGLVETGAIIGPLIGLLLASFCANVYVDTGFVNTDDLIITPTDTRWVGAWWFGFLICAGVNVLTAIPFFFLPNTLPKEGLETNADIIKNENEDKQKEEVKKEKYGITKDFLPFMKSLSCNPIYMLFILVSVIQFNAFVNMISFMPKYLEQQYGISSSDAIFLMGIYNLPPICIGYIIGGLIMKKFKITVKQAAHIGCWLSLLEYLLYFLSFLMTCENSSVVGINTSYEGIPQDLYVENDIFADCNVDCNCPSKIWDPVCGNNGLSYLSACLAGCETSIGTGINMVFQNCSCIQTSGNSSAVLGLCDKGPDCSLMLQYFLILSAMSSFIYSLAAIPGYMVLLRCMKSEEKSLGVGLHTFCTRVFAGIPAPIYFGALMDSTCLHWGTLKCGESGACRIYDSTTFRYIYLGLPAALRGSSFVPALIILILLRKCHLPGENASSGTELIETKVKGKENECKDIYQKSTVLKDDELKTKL
Assay: Inhibition of fexofenadine uptake in OATP1A2-transfected HEK293T/17 cells
Type: cell-based
Settings: inhibitor 250 μmol/l, fexofenadine 5 μmol/l, 30 min

O=C1OC(c2ccc(O)c(S(=O)(=O)O)c2)(c2ccc(O)c(S(=O)(=O)O)c2)c2c(Br)c(Br)c(Br)c(Br)c21 [BSP, bromosulfophthalein]
Inhibition of fexofenadine uptake: did not inhibit
